In ChEMBL document CHEMBL5291721, “A preclinical secondary pharmacology resource illuminates target-adverse drug reaction associations of marketed drugs” (Nat Commun, 2023):

Tests used:
Histamine H1 receptor [1] = target: T1, Histamine H1 receptor (Homo sapiens, UniProt P35367); type: functional, cell-based
[2] = target: T2, Gamma-aminobutyric acid receptor subunit alpha-1/alpha-2/beta-2/gamma-2 (Homo sapiens, UniProt P14867+P18507+P47869+P47870); type: functional, cell-based
Histamine H1 receptor [3] = target: T1, Histamine H1 receptor; type: functional, cell-based; remark: listed apart in the source
[4] = target: T2, Gamma-aminobutyric acid receptor subunit alpha-1/alpha-2/beta-2/gamma-2; type: functional, cell-based; remark: listed apart in the source
[5] = target: T3, Peroxisome proliferator-activated receptor gamma (Homo sapiens, UniProt P37231); type: functional
T3 sequence (P37231 whole entry): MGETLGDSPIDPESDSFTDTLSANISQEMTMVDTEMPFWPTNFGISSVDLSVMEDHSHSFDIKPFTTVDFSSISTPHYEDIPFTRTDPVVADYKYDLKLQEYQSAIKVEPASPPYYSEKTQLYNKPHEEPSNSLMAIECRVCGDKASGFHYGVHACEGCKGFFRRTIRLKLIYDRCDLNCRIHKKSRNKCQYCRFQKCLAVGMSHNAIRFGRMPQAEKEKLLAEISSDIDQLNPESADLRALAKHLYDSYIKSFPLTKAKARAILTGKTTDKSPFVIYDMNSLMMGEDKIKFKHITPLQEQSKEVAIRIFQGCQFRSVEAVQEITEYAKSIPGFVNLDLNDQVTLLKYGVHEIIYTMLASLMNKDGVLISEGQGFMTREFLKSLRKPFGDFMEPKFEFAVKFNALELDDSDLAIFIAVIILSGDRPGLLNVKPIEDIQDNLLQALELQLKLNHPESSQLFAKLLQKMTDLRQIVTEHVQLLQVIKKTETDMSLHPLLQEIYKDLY

[6] = target: T3, Peroxisome proliferator-activated receptor gamma; type: functional; remark: listed apart in the source
B1 bradykinin receptor = target: T4, B1 bradykinin receptor (Homo sapiens, UniProt P46663)
T4 sequence (P46663 whole entry): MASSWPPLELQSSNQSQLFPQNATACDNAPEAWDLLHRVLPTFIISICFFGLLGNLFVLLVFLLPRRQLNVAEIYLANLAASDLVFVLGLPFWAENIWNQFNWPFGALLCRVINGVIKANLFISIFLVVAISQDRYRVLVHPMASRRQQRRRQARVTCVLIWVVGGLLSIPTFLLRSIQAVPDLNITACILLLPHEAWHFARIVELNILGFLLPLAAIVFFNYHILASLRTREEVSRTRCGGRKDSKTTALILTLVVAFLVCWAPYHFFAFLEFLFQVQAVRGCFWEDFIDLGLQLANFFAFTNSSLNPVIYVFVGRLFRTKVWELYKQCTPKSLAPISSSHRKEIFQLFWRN

[7] = target: T5, Endothelin receptor type B (Homo sapiens, UniProt P24530)
T5 sequence (P24530 whole entry): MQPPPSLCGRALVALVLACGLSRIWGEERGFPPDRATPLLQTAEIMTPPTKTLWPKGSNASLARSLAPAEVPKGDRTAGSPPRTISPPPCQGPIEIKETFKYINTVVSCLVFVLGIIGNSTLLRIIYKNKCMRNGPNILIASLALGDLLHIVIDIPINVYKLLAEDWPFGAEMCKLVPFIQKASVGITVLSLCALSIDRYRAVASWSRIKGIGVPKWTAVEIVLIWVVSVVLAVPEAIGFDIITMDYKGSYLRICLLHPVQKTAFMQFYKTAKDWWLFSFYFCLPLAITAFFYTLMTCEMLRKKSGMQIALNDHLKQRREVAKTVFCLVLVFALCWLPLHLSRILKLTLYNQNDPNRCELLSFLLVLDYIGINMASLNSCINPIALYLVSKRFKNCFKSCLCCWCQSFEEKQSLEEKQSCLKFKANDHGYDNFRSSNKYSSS

[8] = target: T6, Alpha-1A adrenergic receptor (Homo sapiens, UniProt P35348)
T6 sequence (P35348 whole entry): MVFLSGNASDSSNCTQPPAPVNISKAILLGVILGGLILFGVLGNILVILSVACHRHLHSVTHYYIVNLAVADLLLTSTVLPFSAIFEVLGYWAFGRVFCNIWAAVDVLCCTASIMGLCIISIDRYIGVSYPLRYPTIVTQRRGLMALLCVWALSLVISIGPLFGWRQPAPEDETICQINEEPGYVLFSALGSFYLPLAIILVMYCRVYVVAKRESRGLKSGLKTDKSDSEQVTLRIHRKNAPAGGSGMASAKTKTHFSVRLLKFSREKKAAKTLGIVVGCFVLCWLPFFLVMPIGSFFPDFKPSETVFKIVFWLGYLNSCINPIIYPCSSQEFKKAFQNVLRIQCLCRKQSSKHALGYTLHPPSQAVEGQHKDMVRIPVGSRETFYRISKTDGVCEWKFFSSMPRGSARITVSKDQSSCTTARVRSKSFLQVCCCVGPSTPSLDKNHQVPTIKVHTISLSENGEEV

D(1A) dopamine receptor = D(1A) dopamine receptor (Homo sapiens, UniProt P21728)
Sequence of D(1A) dopamine receptor (P21728 whole entry): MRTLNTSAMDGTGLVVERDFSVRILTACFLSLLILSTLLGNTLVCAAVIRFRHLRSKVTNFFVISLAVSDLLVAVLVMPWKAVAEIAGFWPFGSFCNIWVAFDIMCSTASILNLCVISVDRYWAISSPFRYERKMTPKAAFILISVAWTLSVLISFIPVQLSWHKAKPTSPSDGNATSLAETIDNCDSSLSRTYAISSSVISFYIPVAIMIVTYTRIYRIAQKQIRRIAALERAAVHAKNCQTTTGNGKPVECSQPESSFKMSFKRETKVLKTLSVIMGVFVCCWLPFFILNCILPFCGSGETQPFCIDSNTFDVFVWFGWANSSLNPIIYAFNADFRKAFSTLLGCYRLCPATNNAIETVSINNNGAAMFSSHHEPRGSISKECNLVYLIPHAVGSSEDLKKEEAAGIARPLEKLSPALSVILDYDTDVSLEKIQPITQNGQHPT

[9] = target: T7, Gastric inhibitory polypeptide receptor (Homo sapiens, UniProt P48546)
T7 sequence (P48546 whole entry): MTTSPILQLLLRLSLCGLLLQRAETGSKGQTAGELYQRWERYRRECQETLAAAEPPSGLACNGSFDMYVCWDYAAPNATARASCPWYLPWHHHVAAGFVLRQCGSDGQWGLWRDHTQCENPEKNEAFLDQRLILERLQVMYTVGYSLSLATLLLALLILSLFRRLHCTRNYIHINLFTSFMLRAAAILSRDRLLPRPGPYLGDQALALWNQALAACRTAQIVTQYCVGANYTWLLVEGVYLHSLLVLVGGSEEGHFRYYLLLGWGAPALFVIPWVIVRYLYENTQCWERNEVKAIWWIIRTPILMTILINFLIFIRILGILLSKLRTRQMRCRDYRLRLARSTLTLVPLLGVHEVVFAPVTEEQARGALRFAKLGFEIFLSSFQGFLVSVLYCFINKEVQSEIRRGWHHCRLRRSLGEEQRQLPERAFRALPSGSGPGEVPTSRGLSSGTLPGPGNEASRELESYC

[10] = target: 5-hydroxytryptamine receptor 6 (Homo sapiens, UniProt P50406)
Sequence of 5-hydroxytryptamine receptor 6 (P50406 whole entry): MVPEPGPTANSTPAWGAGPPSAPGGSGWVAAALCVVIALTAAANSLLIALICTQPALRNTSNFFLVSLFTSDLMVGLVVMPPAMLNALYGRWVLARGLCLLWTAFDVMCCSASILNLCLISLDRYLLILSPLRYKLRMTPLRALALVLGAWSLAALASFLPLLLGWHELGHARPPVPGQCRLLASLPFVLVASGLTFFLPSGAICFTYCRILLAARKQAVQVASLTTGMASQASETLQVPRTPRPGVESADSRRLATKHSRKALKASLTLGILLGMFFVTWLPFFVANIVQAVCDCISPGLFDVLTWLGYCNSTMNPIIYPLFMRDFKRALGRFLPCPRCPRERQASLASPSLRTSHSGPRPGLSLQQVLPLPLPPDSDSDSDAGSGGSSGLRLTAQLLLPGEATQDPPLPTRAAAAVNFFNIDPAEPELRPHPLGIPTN

Cannabinoid receptor 1 = Cannabinoid receptor 1 (Homo sapiens, UniProt P21554); type: functional
Sequence of Cannabinoid receptor 1 (P21554 whole entry): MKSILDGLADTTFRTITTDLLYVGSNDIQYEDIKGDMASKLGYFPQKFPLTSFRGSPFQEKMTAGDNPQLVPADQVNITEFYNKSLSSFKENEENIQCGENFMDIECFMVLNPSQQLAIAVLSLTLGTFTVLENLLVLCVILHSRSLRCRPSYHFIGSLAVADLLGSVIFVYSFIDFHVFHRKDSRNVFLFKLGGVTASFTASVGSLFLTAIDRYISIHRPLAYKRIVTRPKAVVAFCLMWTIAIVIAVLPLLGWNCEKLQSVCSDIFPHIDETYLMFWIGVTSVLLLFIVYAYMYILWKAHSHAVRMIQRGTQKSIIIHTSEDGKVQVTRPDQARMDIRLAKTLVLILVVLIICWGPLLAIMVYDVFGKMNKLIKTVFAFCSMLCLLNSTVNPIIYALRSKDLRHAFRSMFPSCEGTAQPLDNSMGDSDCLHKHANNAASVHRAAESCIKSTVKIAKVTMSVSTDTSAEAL

Measured: AC50
Note: assay procedure not described here.

T1 sequence (P35367 whole entry): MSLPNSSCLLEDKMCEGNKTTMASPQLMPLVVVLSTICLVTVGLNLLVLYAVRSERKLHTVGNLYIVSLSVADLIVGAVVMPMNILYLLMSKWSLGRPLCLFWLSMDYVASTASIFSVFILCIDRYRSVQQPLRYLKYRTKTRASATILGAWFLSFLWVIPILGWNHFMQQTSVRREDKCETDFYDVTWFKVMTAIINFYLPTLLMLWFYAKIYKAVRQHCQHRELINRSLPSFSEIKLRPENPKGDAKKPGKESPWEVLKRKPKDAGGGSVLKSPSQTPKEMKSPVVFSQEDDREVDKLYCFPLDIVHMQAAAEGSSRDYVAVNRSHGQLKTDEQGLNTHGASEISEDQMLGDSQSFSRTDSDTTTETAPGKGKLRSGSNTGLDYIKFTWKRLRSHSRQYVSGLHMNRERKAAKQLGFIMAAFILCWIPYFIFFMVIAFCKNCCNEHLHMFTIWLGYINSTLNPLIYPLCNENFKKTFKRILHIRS
T2 sequence (P14867 whole entry): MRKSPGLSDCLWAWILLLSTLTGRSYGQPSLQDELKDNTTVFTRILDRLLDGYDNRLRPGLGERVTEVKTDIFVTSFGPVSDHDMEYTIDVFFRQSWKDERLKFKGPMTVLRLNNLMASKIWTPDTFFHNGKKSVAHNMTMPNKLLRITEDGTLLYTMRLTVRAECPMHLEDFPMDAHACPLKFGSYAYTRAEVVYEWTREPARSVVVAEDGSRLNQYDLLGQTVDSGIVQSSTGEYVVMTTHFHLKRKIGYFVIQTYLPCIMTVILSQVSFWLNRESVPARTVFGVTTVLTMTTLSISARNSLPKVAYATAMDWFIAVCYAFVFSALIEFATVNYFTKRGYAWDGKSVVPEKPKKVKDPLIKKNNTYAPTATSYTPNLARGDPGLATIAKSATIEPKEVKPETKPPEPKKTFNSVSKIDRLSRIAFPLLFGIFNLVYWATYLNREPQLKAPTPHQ
T2 sequence (P47870 whole entry): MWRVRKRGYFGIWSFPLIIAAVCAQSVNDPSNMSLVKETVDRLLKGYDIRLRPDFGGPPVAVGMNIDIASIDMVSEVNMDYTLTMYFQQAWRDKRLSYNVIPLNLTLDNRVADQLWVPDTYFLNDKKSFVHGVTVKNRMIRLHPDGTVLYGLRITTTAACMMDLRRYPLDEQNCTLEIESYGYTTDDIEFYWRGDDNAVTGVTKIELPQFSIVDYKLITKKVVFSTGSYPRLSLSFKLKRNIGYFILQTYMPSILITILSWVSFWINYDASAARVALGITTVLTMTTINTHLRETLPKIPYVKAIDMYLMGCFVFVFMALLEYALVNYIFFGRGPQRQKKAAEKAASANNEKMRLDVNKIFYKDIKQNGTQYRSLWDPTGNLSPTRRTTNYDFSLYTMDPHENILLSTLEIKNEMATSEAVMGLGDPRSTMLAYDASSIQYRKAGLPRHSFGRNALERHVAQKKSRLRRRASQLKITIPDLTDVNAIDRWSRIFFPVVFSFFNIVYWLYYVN
T2 sequence (P18507 whole entry): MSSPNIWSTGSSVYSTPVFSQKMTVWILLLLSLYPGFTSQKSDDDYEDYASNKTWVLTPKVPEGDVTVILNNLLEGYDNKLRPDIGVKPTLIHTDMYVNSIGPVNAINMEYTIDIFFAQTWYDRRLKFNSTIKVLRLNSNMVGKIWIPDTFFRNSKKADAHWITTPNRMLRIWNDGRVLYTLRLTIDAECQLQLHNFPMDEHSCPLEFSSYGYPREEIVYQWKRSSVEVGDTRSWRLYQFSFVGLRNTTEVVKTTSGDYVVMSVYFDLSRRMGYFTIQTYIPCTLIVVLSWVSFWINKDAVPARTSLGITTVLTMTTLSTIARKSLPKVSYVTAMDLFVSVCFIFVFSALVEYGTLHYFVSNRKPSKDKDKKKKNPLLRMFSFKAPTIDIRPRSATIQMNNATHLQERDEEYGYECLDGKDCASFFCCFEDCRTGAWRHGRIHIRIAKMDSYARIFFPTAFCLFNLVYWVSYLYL
T2 sequence (P47869 whole entry): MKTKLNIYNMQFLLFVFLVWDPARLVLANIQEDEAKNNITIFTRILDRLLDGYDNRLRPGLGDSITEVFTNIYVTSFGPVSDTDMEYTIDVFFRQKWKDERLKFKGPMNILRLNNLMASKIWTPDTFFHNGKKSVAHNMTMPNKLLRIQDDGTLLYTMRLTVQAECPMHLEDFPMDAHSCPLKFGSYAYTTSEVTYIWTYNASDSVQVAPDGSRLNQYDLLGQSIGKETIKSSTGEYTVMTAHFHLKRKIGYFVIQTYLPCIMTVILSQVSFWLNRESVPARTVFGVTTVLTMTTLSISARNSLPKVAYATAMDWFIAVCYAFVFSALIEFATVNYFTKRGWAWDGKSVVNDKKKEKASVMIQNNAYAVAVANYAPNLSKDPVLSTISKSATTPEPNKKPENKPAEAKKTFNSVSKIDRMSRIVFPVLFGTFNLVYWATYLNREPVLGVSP

CC/C=C\C/C=C\C/C=C\CCCCCCCC(=O)O [LINOLENIC ACID]
> 10 µM: [2]
> 30 µM: Histamine H1 receptor [1] | Histamine H1 receptor [3] | [4]

Cc1cccc(C)c1NC(=O)C1CCCCN1C (stereo not drawn) [MEPIVACAINE]
> 30 µM: [2] | [5] | [6]

C[C@H]1C[C@@H]2[C@H]([C@@H](O)C[C@@]3(C)[C@H]2CC[C@]3(O)C(=O)COC(=O)CCC(=O)O)[C@@]2(C)C=CC(=O)C=C12 [METHYLPREDNISOLONE HEMISUCCINATE]
> 30 µM: Histamine H1 receptor [1] | [2] | [5] | Histamine H1 receptor [3] | [6] | [4]

Cc1cc(-c2ccccc2)nnc1NCCN1CCOCC1 [MINAPRINE]
> 30 µM: B1 bradykinin receptor | [7] | [9]
> 10 µM: [8] | D(1A) dopamine receptor

CCCCC(C)(O)C/C=C/[C@H]1[C@H](O)CC(=O)[C@@H]1CCCCCCC(=O)OC (stereo partly drawn) [MISOPROSTOL]
> 30 µM: Histamine H1 receptor [1] | [2] | Histamine H1 receptor [3] | [4]

NC(=O)C[S+]([O-])C(c1ccccc1)c1ccccc1 (stereo not drawn) [MODAFINIL]
> 10 µM: [10] | Cannabinoid receptor 1 | [8] | D(1A) dopamine receptor
> 30 µM: B1 bradykinin receptor | [9]
23.5 µM: [7]

CCCCCCC(C)(C)c1cc(O)c2c(c1)OC(C)(C)C1CCC(=O)CC21 (stereo not drawn) [NABILONE]
> 30 µM: Histamine H1 receptor [1] | [2] | [5] | Histamine H1 receptor [3] | [6] | [4]

O=C(O)CCCc1ccccc1 [PHENYLBUTANOIC ACID]
> 10 µM: [10] | B1 bradykinin receptor | Cannabinoid receptor 1 | [8]
> 30 µM: [7] | [9]

CCCOc1ccc(C(=O)OCCN(CC)CC)cc1N [PROPARACAINE]
> 30 µM: [2] | [5] | [6]

Nc1nc2ccc(OC(F)(F)F)cc2s1 [RILUZOLE]
> 30 µM: [2] | [5] | [6] | [4]

Cc1c(C(=O)Nc2ccc(N3C[C@@H](C)O[C@@H](C)C3)nc2)cccc1-c1ccc(OC(F)(F)F)cc1 [SONIDEGIB]
> 30 µM: B1 bradykinin receptor | [7] | [9]
> 10 µM: [8] | D(1A) dopamine receptor

COc1ccc(C(=O)N2CCN(c3ccc4c(c3)CCC(=O)N4)CC2)cc1OC [VESNARINONE]
> 30 µM: Histamine H1 receptor [1] | [2] | Histamine H1 receptor [3] | [4]

Cc1ccc(-c2nc3ccc(C)cn3c2CC(=O)N(C)C)cc1 [ZOLPIDEM]
> 30 µM: B1 bradykinin receptor | [7] | [9]
> 10 µM: [10] | Cannabinoid receptor 1 | [8] | D(1A) dopamine receptor

CN1CCN(C(=O)OC2c3nccnc3C(=O)N2c2ccc(Cl)cn2)CC1 (stereo not drawn) [ZOPICLONE]
> 10 µM: [10] | Cannabinoid receptor 1 | [8] | D(1A) dopamine receptor
> 30 µM: [5] | B1 bradykinin receptor | [7] | [6] | [9]
